According to patent US10550102B2, “Indane and indoline derivatives and the use thereof as soluble guanylate cyclase activators” (NOVARTIS AG, priority 2014, dated 2020):

Molecular target: soluble guanylate cyclase (human GUCYA3 and GUCYB3) overexpressed in CHO cells (Homo sapiens (Human), UniProt Q02108+Q02153)
Test: CHO cellular assay (cGMP production, Cisbio cGMP HTRF kit)
Type: cell-based
Settings: CHO GUCY clone 8E10, cGMP production, assay buffer with 1 mM IBMX and 20 uM ODQ, 1 h room temperature; minimum quantification limit 0.5 nM (listed 0.5 nM means ≤0.5 nM); read-out: EC50
From the text: Chinese hamster ovary (CHO) cells overexpressing soluble guanylate cyclase were generated to test the effect of sGC activators in a cellular context. Human cDNAs for GUCYA3 (RefSeq: NM_000856.3) and GUCYB3 (RefSeq: NM_000857.1) were amplified by PCR from a HUVEC (Human Umbilical Vein Endothelial Cells) cDNA library and cloned into mammalian expression vectors. CHO K1 cells (ATCC CCL-61) were transfected using Lipofectamine 2000 following manufacturer's instructions and stably expressing clones were identified by antibiotic selection. CHO GUCY clone 8E10 was used for subsequent experiments. Cells were seeded at a density of 3000 cells/well in white 384-well proxyplates (Perkin Elmer) and incubated overnight, then the medium was removed and cells were washed with assay buffer (HBSS, 0.1% BSA. 1 mM IBMX, 20 uM ODQ). sGC activators were serially diluted in DMSO, then diluted in assay buffer prior to adding to cells (10 ul/well, final DMSO concentration 0.5%). Cells were incubated with compounds for 1 h room temperature, then assayed for cGMP production using Cisbio cGMP HTRF kit (62GM2PEC) according to manufacturer's instructions. The EC50s are calculated based on the amount of cGMP interpolated from the standard curve, using a 4-parameter sigmoidal dose-response.

Chain of soluble guanylate cyclase (human GUCYA3 and GUCYB3) overexpressed in CHO cells (Q02108 whole entry partner): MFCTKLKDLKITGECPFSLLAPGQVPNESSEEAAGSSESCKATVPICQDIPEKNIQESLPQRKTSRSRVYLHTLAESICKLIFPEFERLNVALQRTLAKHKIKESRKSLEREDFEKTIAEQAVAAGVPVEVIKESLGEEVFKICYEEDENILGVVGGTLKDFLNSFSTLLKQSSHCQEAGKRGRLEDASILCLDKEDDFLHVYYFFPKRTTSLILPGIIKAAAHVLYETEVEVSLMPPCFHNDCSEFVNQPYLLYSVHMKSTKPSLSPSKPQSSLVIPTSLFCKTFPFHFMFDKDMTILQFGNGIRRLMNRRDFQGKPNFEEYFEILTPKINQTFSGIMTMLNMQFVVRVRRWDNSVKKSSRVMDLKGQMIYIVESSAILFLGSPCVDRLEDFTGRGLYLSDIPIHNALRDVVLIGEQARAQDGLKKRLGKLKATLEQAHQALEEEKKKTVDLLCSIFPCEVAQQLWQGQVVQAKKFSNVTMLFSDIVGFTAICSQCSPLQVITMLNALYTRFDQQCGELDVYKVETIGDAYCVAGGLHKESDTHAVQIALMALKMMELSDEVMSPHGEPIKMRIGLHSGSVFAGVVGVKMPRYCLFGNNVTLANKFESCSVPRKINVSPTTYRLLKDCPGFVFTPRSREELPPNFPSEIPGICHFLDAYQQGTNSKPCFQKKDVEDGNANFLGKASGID
Chain of soluble guanylate cyclase (human GUCYA3 and GUCYB3) overexpressed in CHO cells (Q02153 whole entry): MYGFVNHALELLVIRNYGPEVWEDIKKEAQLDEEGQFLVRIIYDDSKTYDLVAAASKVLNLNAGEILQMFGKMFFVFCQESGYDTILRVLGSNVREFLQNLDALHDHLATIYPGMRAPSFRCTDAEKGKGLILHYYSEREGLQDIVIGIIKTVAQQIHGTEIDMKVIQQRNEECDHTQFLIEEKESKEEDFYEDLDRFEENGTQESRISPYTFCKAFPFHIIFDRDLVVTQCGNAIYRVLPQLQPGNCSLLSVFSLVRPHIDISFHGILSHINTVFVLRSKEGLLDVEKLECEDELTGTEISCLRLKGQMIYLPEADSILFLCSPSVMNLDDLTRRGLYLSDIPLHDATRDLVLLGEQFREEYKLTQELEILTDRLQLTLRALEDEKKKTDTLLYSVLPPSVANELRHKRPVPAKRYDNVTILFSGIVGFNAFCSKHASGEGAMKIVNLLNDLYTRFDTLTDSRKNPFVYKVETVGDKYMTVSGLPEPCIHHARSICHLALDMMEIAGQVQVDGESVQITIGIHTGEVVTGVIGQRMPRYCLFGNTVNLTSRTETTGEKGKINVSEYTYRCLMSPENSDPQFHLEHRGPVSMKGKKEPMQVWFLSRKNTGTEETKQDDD

**Q.** How did the EC50 turn out when CCc1cc(CN2CC(C)c3cccc(-c4cccc(-n5ncc(C(=O)O)c5C)n4)c32)ccc1C1CCN(C(=O)C2CC2)CC1 (single isomer, unassigned; (+)) [(+)-20-3, (+)-1-(6-(1-(4-(1-(Cyclopropanecarbonyl)piperidin-4-yl)-3-ethylbenzyl)-3-methylindolin-7-yl)pyridin-2-yl)-5-methyl-1H-pyrazole-4-carboxylic acid] was run?
**A.** ≤ 0.5 nM

**Q.** CCc1cc(NC2COc3cccc(-c4cccc(-n5ncc(C(=O)O)c5C(F)(F)F)n4)c32)ccc1C1CCN(C(=O)C2CC2)CC1 (single isomer, unassigned; (+)) [(+)-36-1, (+)-1-(6-(3-((4-(1-(Cyclopropanecarbonyl)piperidin-4-yl)-3-ethylphenyl)amino)-2,3-dihydrobenzofuran-4-yl)pyridin-2-yl)-5-(trifluoromethyl)-1H-pyrazole-4-carboxylic acid] was tested. Which EC50 did it give?
**A.** ≤ 0.5 nM

**Q.** Which EC50 does the source give for CCc1cc(NC2COc3cccc(-c4cccc(-n5ncc(C(=O)O)c5CC)n4)c32)ccc1C1CCN(C(=O)C2CC2)CC1 (single isomer, unassigned; (+)) [(+)-36-2, (+)-1-(6-(3-((4-(1-(Cyclopropanecarbonyl)piperidin-4-yl)-3-ethylphenyl)amino)-2,3-dihydrobenzofuran-4-yl)pyridin-2-yl)-5-ethyl-1H-pyrazole-4-carboxylic acid] here?
**A.** ≤ 0.5 nM

**Q.** Which EC50 does the source give for Cc1cc(C2CCN(C(=O)C(C)C)CC2)ccc1NC1CCc2cccc(-c3cccc(-n4ncc(C(=O)O)c4C)n3)c21 (single isomer, unassigned; (+)) [(+)-46-1] here?
**A.** ≤ 0.5 nM

**Q.** For Cc1cc(C2CCN(C(=O)CC3CC3)CC2)ccc1NC1CCc2cccc(-c3cccc(-n4ncc(C(=O)O)c4C)n3)c21 (single isomer, unassigned; (+)) [(+)-46-3, (+)-1-(6-(3-((4-(1-(2-Cyclopropylacetyl)piperidin-4-yl)-2-methylphenyl)amino)-2,3-dihydro-1H-inden-4-yl)pyridin-2-yl)-5-methyl-1H-pyrazole-4-carboxylic acid], which EC50 is on record?
**A.** 1 nM

**Q.** For Cc1cc(C2CCN(C(=O)CC3CC3)CC2)c(F)cc1NC1CCc2cccc(-c3cccc(-n4ncc(C(=O)O)c4C)n3)c21 (single isomer, unassigned; (+)) [(+)-46-5, (+)-1-(6-(3-((4-(1-(2-Cyclopropylacetyl)piperidin-4-yl)-5-fluoro-2-methylphenyl)amino)-2,3-dihydro-1H-inden-4-yl)pyridin-2-yl)-5-methyl-1H-pyrazole-4-carboxylic acid], which EC50 is on record?
**A.** 1 nM

**Q.** CCc1cc(NC2CCc3cccc(-c4cccc(-n5ncc(C(=O)O)c5C)n4)c32)ccc1C1CCN(C(=O)C2CC2)CC1 (single isomer, unassigned; (+)) [(+)-46-6] was tested. Which EC50 did it give?
**A.** ≤ 0.5 nM

**Q.** For CCOC(=O)N1CCC(c2ccc(NC3CCc4cccc(-c5cccc(-n6ncc(C(=O)O)c6CC)n5)c43)cc2CC)CC1 (single isomer, unassigned; (+)) [(+)-52-1], which EC50 is on record?
**A.** ≤ 0.5 nM

**Q.** For CCc1cc(NC2CCc3cccc(-c4cccc(-n5ncc(C(=O)O)c5CC)n4)c32)ccc1C1CCN(C(=O)OC)CC1 (single isomer, unassigned; (+)) [(+)-52-2, (+)-5-Ethyl-1-(6-(3-((3-ethyl-4-(1-(methoxycarbonyl)piperidin-4-yl)phenyl)amino)-2,3-dihydro-1H-inden-4-yl)pyridin-2-yl)-1H-pyrazole-4-carboxylic acid], which EC50 is on record?
**A.** ≤ 0.5 nM

**Q.** How did the EC50 turn out when C=CCOC(=O)N1CCC(c2ccc(NC3CCc4cccc(-c5cccc(-n6ncc(C(=O)O)c6CC)n5)c43)cc2CC)CC1 (single isomer, unassigned; (+)) [(+)-52-3] was run?
**A.** ≤ 0.5 nM

**Q.** How did the EC50 turn out when CCc1cc(NC2CCc3cccc(-c4cccc(-n5ncc(C(=O)O)c5CC)n4)c32)ccc1C1CCN(C(=O)C2CC2)CC1 (single isomer, unassigned; (+)) [(+)-53-1, (+)-1-(6-(3-((4-(1-(cyclopropanecarbonyl)piperidin-4-yl)-3-ethylphenyl)amino)-2,3-dihydro-1H-inden-4-yl)pyridin-2-yl)-5-ethyl-1H-pyrazole-4-carboxylic acid] was run?
**A.** ≤ 0.5 nM

**Q.** With CCc1cc(NC2CCc3cccc(-c4cccc(-n5ncc(C(=O)O)c5CC)n4)c32)ccc1C1CCN(C(=O)CC2CC2)CC1 (single isomer, unassigned; (+)) [(+)-53-2, (+)-1-(6-(3-((4-(1-(2-cyclopropylacetyl)piperidin-4-yl)-3-ethylphenyl)amino)-2,3-dihydro-1H-inden-4-yl)pyridin-2-yl)-5-ethyl-1H-pyrazole-4-carboxylic acid] as the molecule, how does the EC50 read?
**A.** 1 nM

**Q.** Cc1cc(C2CCN(C(=O)CC3CC3)CC2)cc(F)c1NC1CCc2cccc(-c3cccc(-n4ncc(C(=O)O)c4C)n3)c21 (single isomer, unassigned; (+)) [(+)-53-3, (+)-1-(6-(3-((4-(1-(2-cyclopropyacetyl)piperidin-4-yl)-2-fluoro-6-methylphenyl)amino)-2,3-dihydro-1H-inden-4-yl)pyridin-2-yl)-5-methyl-1H-pyrazole-4-carboxylic acid] was tested. Which EC50 did it give?
**A.** 3.5 nM

**Q.** With Cc1cc(C2CCN(C(=O)C3CC3)CC2)ccc1NC1CCc2cccc(-c3cccc(-n4ncc(C(=O)O)c4C(F)F)n3)c21 (single isomer, unassigned; (+)) [(+)-53-4, (+)-1-(6-(3-((4-(1-(cyclopropanecarbonyl)piperidin-4-yl)-2-methylphenyl)amino)-2,3-dihydro-1H-inden-4-yl)pyridin-2-yl)-5-(difluoromethyl)-1H-pyrazole-4-carboxylic acid] as the molecule, how does the EC50 read?
**A.** ≤ 0.5 nM

**Q.** Which EC50 does the source give for Cc1cc(C2CCN(C(=O)C3CC3)CC2)ccc1OC1CCc2cccc(-c3cccc(-n4ncc(C(=O)O)c4C(F)(F)F)n3)c21 (single isomer, unassigned; (+)) [Example 3a, (+)-1-(6-(3-(4-(1-(cyclopropanecarbonyl)piperidin-4-yl)-2-methylphenoxy)-2,3-dihydro-1H-inden-4-yl)pyridin-2-yl)-5-(trifluoromethyl)-1H-pyrazole-4-carboxylic Acid] here?
**A.** 1 nM

**Q.** For O=C(O)c1cnn(-c2cccc(-c3cccc4c3C(Oc3ccc5c(c3)CCN(Cc3ccccn3)C5)CC4)n2)c1C(F)(F)F (single isomer, unassigned; (+)) [Example 4a, (+)-1-(6-(3-((2-(pyridin-2-ylmethyl)-1,2,3,4-tetrahydroisoquinolin-6-yl)oxy)-2,3-dihydro-1H-inden-4-yl)pyridin-2-yl)-5-(trifluoromethyl)-1H-pyrazole-4-carboxylic Acid], which EC50 is on record?
**A.** 2.4 nM

**Q.** For Cc1cc(C2CCN(C(=O)C3CC3)CC2)ccc1NC1CCc2cccc(-c3cccc(-n4ncc(C(=O)O)c4C(F)(F)F)c3)c21 (single isomer, unassigned; (+)) [Example 6. b). (+), (+)-1-(3-(3-((4-(1-(cyclopropanecarbonyl)piperidin-4-yl)-2-methylphenyl)amino)-2,3-dihydro-1H-inden-4-yl)phenyl)-5-(trifluoromethyl)-1H-pyrazole-4-carboxylic acid], which EC50 is on record?
**A.** ≤ 0.5 nM

**Q.** For Cc1cc(C2CCN(C(=O)C3CC3)CC2)ccc1NC1CCc2cccc(-c3cccc(-n4ncc(C(=O)O)c4C)n3)c21 (single isomer, unassigned; (+)) [Example 7a, (+)-1-(6-(3-((4-(1-(cyclopropanecarbonyl)piperidin-4-yl)-2-methylphenyl)amino)-2,3-dihydro-1H-inden-4-yl)pyridin-2-yl)-5-methyl-1H-pyrazole-4-carboxylic acid], which EC50 is on record?
**A.** ≤ 0.5 nM

**Q.** For Cc1c(C(=O)O)cnn1-c1cccc(-c2cccc3c2C(Nc2ccc(C4CCN(C(=O)C5CC5)CC4)cc2)CC3)n1 (single isomer, unassigned; (+)) [Example 9. b). (+), (+)-1-(6-(3-((4-(1-(cyclopropanecarbonyl)piperidin-4-yl)phenyl)amino)-2,3-dihydro-1H-inden-4-yl)pyridin-2-yl)-5-methyl-1H-pyrazole-4-carboxylic acid], which EC50 is on record?
**A.** ≤ 0.5 nM

**Q.** Which EC50 does the source give for CCc1c(C(=O)O)cnn1-c1cccc(-c2cccc3c2C(Nc2ccc(C4CCN(C(=O)C5CC5)CC4)cc2C)CC3)n1 (single isomer, unassigned; (+)) [Example 10a] here?
**A.** ≤ 0.5 nM

**Q.** How did the EC50 turn out when CCc1cc(CN2CC(C)c3cccc(-c4cccc(-n5ncc(C(=O)O)c5C(F)(F)F)n4)c32)ccc1C1CCN(C(=O)C2CC2)CC1 (single isomer, unassigned; (+)) [Example 19a] was run?
**A.** ≤ 0.5 nM

**Q.** CCc1cc(CN2c3c(cccc3-c3cccc(-n4ncc(C(=O)O)c4CC)n3)CC2C)ccc1C1CCN(C(=O)C2CC2)CC1 (single isomer, unassigned; (+)) [Example 22a, (+)-1-(6-(1-(4-(1-(Cyclopropanecarbonyl)piperidin-4-yl)-3-ethylbenzyl)-2-methylindolin-7-yl)pyridin-2-yl)-6-ethyl-1H-pyrazole-4-carboxylic Acid] was tested. Which EC50 did it give?
**A.** 1 nM

**Q.** With Cc1cc(C2CCN(C(=O)C3CC3)CC2)ccc1NC1COc2cccc(-c3cccc(-n4ncc(C(=O)O)c4C)n3)c21 (single isomer, unassigned; (+)) [Example 34a, (+)-1-(6-(3-((4-(1-(Cyclopropanecarbonyl)piperidin-4-yl)-2-methylphenyl)amino)-2,3-dihydrobenzofuran-4-yl)pyridin-2-yl)-5-methyl-1H-pyrazole-4-carboxylic Acid] as the molecule, how does the EC50 read?
**A.** ≤ 0.5 nM

**Q.** For Cc1cc(C2CCN(C(=O)[C@H](C)O)CC2)ccc1NC1COc2cccc(-c3cccc(-n4ncc(C(=O)O)c4C)n3)c21 (single isomer, unassigned; (+)) [Example 35a], which EC50 is on record?
**A.** ≤ 0.5 nM
